According to US20260138990A1, “TRICYCLIC FUSED IMIDAZOLE COMPOUNDS AS CD38 MODULATORS AND USES THEREOF” (AEOVIAN PHARMACEUTICALS, INC., priority 2023, published 2026):

Key:
[1] = target: T1, human CD38 (Homo sapiens, UniProt P28907); test: NAD+ cyclase activity assay with human recombinant CD38 protein (ε-NAD fluorescence); assay type: biochemical; details: 1.9 nM human CD38, substrate ε-NAD, 30 min preincubation, fluorescence 300/410 nm
T1 construct: purchased Bio-Techne GmbH AVI2404
T1 sequence (P28907 1-300): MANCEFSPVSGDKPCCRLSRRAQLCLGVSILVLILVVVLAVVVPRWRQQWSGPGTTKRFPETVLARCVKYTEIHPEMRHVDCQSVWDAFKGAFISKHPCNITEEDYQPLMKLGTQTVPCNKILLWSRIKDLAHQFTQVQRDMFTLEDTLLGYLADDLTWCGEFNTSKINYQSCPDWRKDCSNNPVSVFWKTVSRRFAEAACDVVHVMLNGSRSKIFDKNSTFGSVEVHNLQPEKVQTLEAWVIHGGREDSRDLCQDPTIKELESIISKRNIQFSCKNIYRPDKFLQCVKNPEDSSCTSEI
Experimental: (§1) Example 4: NAD^+ Cydase Activity Assay with Human or Mouse Recombinant CD38 Protein
(§2) The following assay was used to determine the ability of compounds of the invention to inhibit the hydrolysis of NAD^+ by the human or mouse enzyme, CD38.
(§3) Reaction buffer: 40 mM HEPES/NaOH pH 7.5, 250 mM sucrose, 0.01% Tween
(§4) Final concentrations: 0.6 nM mouse CD38 (4947-AC, Bio-Techne GmbH) 1.9 nM human CD38 (AVI2404, Bio-Techne GmbH)
(§5) Substrate: […] Nicotinamide 1,N6-ethenoadenine dinucleotide (&-NAD)
(§6) Read-out: Fluorescence intensity (extinction 300 nm/emission 410 nm)
(§7) Required reaction buffer, required CD38 concentration in reaction buffer and required e-NAD concentration in reaction buffer were prepared. Thereafter, 8 μL of CD38 in reaction buffer was added to High Control and compound concentration wells in 384 well plate (Corning #4514, 384 well, nonbinding surface, low volume, round bottom) and 8 μL of reaction buffer to Low Control. Compound dilutions were transferred via pintool technology that transfers 42.5 nL compound dilutions (12-point dose-response with factor three dilutions in 100% DMSO) well-to-well. Plate was subsequently shaken for 15 s at 1450 rpm and sealed for incubation for 30 min at room temperature. Thereafter, 2 μL of e-NAD in reaction buffer were added with Integra Voyager. After shaking for 15 s at 1450 rpm, plate was sealed, and assay signal were measured continuously with PHERAstar® fluorescence intensity module (extinction 300 nm/emission 410 nm).
(§8) Dose-response curves were constructed using twelve-pointfactor three dilutions in triplicates per plate. High control (full enzyme activity) was set to assay signal of CD38 and e-NAD in presence of vehicle (DMSO) and Low control (full enzyme inhibition) was set to assay signal of e-NAD and vehicle (DMSO) in absence of CD38. For data analysis, fluorescent signal of traces corresponding to each compound concentration and High and Low control were monitored over time. Each run, High Control (full enzyme activity) was fitted to Linear equation via GraphPad Prism to determine CD38 activity from the slope and determine the time interval of linear phase of reaction to account for minor fluctuations. Thereafter, slopes of all compound concentrations were determined via fitting to same linear equation (GraphPad Prism) over the same time interval as determined for High control. […] Unless otherwise stated, fitting of curves were fixed to 100%-inhibition and unlocked for 0%-inhibition.

[2] = target: T2, mouse CD38 (Mus musculus, UniProt P56528); test: NAD+ cyclase activity assay with mouse recombinant CD38 protein (ε-NAD fluorescence); assay type: biochemical; details: 0.6 nM mouse CD38, substrate ε-NAD, 30 min preincubation, fluorescence 300/410 nm
T2 construct: purchased Bio-Techne GmbH 4947-AC
T2 sequence (P56528 1-304): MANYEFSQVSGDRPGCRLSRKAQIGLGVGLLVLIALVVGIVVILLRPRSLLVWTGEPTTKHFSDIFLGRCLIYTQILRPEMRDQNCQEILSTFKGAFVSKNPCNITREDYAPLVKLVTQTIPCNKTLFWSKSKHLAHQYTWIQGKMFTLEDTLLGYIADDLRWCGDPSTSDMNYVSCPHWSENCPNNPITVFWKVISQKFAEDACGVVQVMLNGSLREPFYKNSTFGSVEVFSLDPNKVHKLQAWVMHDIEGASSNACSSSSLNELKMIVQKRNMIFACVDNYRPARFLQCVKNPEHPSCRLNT
Experimental: as §1, §2, §3, §4, §5, §6, §7, §8

Compound | IC50 [1] | IC50 [2]
O=C(Nc1cnc2c(c1)OCCO2)c1ccc2c(c1)-c1cncn1CCO2 [Compound 31A, N-(2,3-Dihydro-[1,4]dioxino[2,3-b]pyridin-7-yl)-5,6-dihydrobenzo[f]imidazo[1,5-d][1,4]oxazepine-10-carboxamide] | < 30 nM | 1 to 10 nM
O=C(Nc1ccc2c(c1)OCC2)c1ccc2c(c1)-c1cncn1CCO2 [Compound 32A, N-(2,3-Dihydrobenzofuran-6-yl)-5,6-dihydrobenzo[f]imidazo[1,5-d][1,4]oxazepine-10-carboxamide] | < 30 nM | 1 to 10 nM
O=C(Nc1ccc2c(c1)COC2)c1ccc2c(c1)-c1cncn1CCO2 [Compound 33A, N-(1,3-Dihydroisobenzofuran-5-yl)-5,6-dihydrobenzo[f]imidazo[1,5-d][1,4]oxazepine-10-carboxamide] | < 30 nM | 1 to 10 nM
O=C(Nc1ccc2nc[nH]c2c1)c1ccc2c(c1)-c1cncn1CCO2 [Compound 34A, N-(1H-Benzo [d]imidazol-6-yl)-5,6-dihydrobenzo[f]imidazo[1,5-d][1,4]oxazepine-10-carboxamide] | < 30 nM | 1 to 10 nM
CN(C)c1nc2ccc(C(=O)N[C@@H]3CCCOC3)cc2n2cncc12 [Compound 35A, (R)-4-(Dimethylamino)-N-(tetrahydro-2H-pyran-3-yl)imidazo[1,5-a]quinoxaline-8-carboxamide] | > 1000 nM | > 100 nM
Cn1ccc(NC(=O)c2ccc3c(c2)-c2cncn2CCO3)cc1=O [Compound 36A, N-(1-Methyl-2-oxo-1,2-dihydropyridin-4-yl)-5,6-dihydrobenzo[f]imidazo[1,5-d][1,4]oxazepine-10-carboxamide] | < 30 nM | < 1 nM
CCCS(=O)(=O)N[C@H]1CC[C@H](NC(=O)c2ccc3c(c2)-c2cncn2CCO3)CC1 [Compound 37A, N-((1r,4r)-4-(Propylsulfonamido)cyclohexyl)-5,6-dihydrobenzo[f]imidazo[1,5-d][1,4]oxazepine-10-carboxamide] | < 30 nM | 1 to 10 nM
CC1(C)Cn2cncc2-c2cc(C(=O)N[C@@H]3CCCOC3)ccc2O1 [Compound 38A, (R)-6,6-Dimethyl-N-(tetrahydro-2H-pyran-3-yl)-5,6-dihydrobenzo[f]imidazo[1,5-d][1,4]oxazepine-10-carboxamide] | > 1000 nM | 10 to 100 nM
O=C(Nc1ccc2ncoc2c1)c1ccc2c(c1)-c1cncn1CCO2 [Compound 39A, N-(Benzo[d]oxazol-6-yl)-5,6-dihydrobenzo[f]imidazo[1,5-d][1,4]oxazepine-10-carboxamide] | < 30 nM | 1 to 10 nM
O=C(Nc1cnc2scnc2c1)c1ccc2c(c1)-c1cncn1CCO2 [Compound 40A, N-(Thiazolo[5,4-b]pyridin-6-yl)-5,6-dihydrobenzo[f]imidazo[1,5-d][1,4]oxazepine-10-carboxamide] | < 30 nM | 1 to 10 nM
O=C(Nc1ccc2ncsc2c1)c1ccc2c(c1)-c1cncn1CCO2 [Compound 41A, N-(Benzo[d]thiazol-6-yl)-5,6-dihydrobenzo[f]imidazo[1,5-d][1,4]oxazepine-10-carboxamide] | < 30 nM | 1 to 10 nM
COCCO[C@H]1CC[C@H](NC(=O)c2cc(Br)c3c(c2)-c2cncn2CCO3)CC1 [Compound 46A, 8-Bromo-N-((1r,4r)-4-(2-methoxyethoxy)cyclohexyl)-5,6-dihydrobenzo[f]imidazo[1,5-d][1,4]oxazepine-10-carboxamide] | < 30 nM | < 1 nM
COCCNc1nc2cc(NC(=O)c3ccc4c(c3)-c3cncn3CCO4)ccc2s1 [Compound 48A, N-(2-((2-Methoxyethyl)amino)benzo[d]thiazol-5-yl)-5,6-dihydrobenzo[f]imidazo[1,5-d][1,4]oxazepine-10-carboxamide] | < 30 nM | 1 to 10 nM
CN(C)c1nc2cc(NC(=O)c3ccc4c(c3)-c3cncn3CCO4)ccc2s1 [Compound 49A, N-(2-(Dimethylamino)benzo[d]thiazol-5-yl)-5,6-dihydrobenzo[f]imidazo[1,5-d][1,4]oxazepine-10-carboxamide] | < 30 nM | 10 to 100 nM
COCCO[C@H]1CC[C@H](NC(=O)c2cc3c(c(C4CC4)c2)OCCn2cncc2-3)CC1 [Compound 50A, 8-Cyclopropyl-N-((1r,4r)-4-(2-methoxyethoxy)cyclohexyl)-5,6-dihydrobenzo[f]imidazo[1,5-d][1,4]oxazepine-10-carboxamide] | 30 to 100 nM | 1 to 10 nM
CC1(C)COc2ccc(C(=O)N[C@@H]3CCCOC3)cc2-c2cncn21 [Compound 51A, (R)-5,5-Dimethyl-N-(tetrahydro-2H-pyran-3-yl)-5,6-dihydrobenzo[f]imidazo[1,5-d][1,4]oxazepine-10-carboxamide] | > 1000 nM | > 100 nM
O=C(N[C@H]1CC[C@H](C(F)(F)F)CC1)c1ccc2c(c1)-c1cncn1CCO2 [Compound 52A, N-((1r,4r)-4-(Trifluoromethyl)cyclohexyl)-5,6-dihydrobenzo[f]imidazo[1,5-d][1,4]oxazepine-10-carboxamide] | < 30 nM | 1 to 10 nM
COCCO[C@H]1CC[C@H](NC(=O)c2cc(C)c3c(c2)-c2cncn2CCO3)CC1 [Compound 53A, N-((1r,4r)-4-(2-Methoxyethoxy)cyclohexyl)-8-methyl-5,6-dihydrobenzo[f]imidazo[1,5-d][1,4]oxazepine-10-carboxamide] | < 30 nM | < 1 nM
COCCO[C@H]1CC[C@H](NC(=O)c2cc(OC)c3c(c2)-c2cncn2CCO3)CC1 [Compound 54A, 8-Methoxy-N-((1r,4r)-4-(2-methoxyethoxy)cyclohexyl)-5,6-dihydrobenzo[f]imidazo[1,5-d][1,4]oxazepine-10-carboxamide] | < 30 nM | 1 to 10 nM
COCCO[C@H]1CC[C@H](NC(=O)c2cc3c(c(C(F)(F)F)c2)OCCn2cncc2-3)CC1 [Compound 55A, N-((1r,4r)-4-(2-Methoxyethoxy)cyclohexyl)-8-(trifluoromethyl)-5,6-dihydrobenzo[f]imidazo[1,5-d][1,4]oxazepine-10-carboxamide] | 30 to 100 nM | < 1 nM
O=C(N[C@H]1CC[C@H](CCO)CC1)c1ccc2c(c1)-c1cncn1CCO2 [Compound 56A, N-((1r,4r)-4-(2-Hydroxyethyl)cyclohexyl)-5,6-dihydrobenzo[f]imidazo[1,5-d][1,4]oxazepine-10-carboxamide] | < 30 nM | 1 to 10 nM
COCCO[C@H]1CC[C@H](NC(=O)c2cc(F)c3c(c2)-c2cncn2CCO3)CC1 [Compound 57A, 8-Fluoro-N-((1r,4r)-4-(2-methoxyethoxy)cyclohexyl)-5,6-dihydrobenzo[f]imidazo[1,5-d][1,4]oxazepine-10-carboxamide] | < 30 nM | < 1 nM
CC(C)(O)[C@H]1CC[C@H](NC(=O)c2ccc3c(c2)-c2cncn2CCO3)CC1 [Compound 58A, N-((1r,4r)-4-(2-Hydroxypropan-2-yl)cyclohexyl)-5,6-dihydrobenzo[f]imidazo[1,5-d][1,4]oxazepine-10-carboxamide] | < 30 nM | < 1 nM
COCCNC(=O)[C@H]1CC[C@H](NC(=O)c2ccc3c(c2)-c2cncn2CCO3)CC1 [Compound 59A, N-((1r,4r)-4-((2-Methoxyethyl)carbamoyl)cyclohexyl)-5,6-dihydrobenzo[f]imidazo[1,5-d][1,4]oxazepine-10-carboxamide] | < 30 nM | 1 to 10 nM
